Key:
[1] = Pharmacokinetics of 1α,25-(OH)2 D3 in vitamin D-deficient rats after oral dosing (Example 4); assay type: in vivo, rat; conditions: single oral dose, 2-48 h
Description: One group is killed 8 hours after dosing with the vehicle. […] The blood is collected and analyzed for 1α,25-(OH)2 D3 levels.

[2] = In vitro thermal conversion of 1α-hydroxyprevitamin D to 1α-hydroxyvitamin D; assay type: physicochemical; conditions: in ethanol, 37° C.
Description: A series of experiments were conducted which address the in vitro conversion of previtamin to vitamin for three 1α-hydroxyprevitamin D's: 1α-hydroxyprevitamin D2, 1α,24-dihydroxyprevitamin D2 and 1α-hydroxyprevitamin D3. Each 1α-hydroxyprevitamin D was dissolved in ethanol, incubated at 37° C. in a water bath, and samples taken at two-hour intervals. An analytical HPLC separation was performed on each sample to quantify the thermal conversion of the previtamin to the vitamin form. The data collected were normalized to account for the presence of any vitamin form in the initial formulation (≤10%). The results are presented in FIG. 1 which is a plot of % previtamin versus time in hours. Linear regression lines were generated for each previtamin.

[3] = Equilibration of previtamin to vitamin form during binding incubation (HPLC); assay type: physicochemical; conditions: end of the VDR binding incubation, read-out: fraction equilibrated to the vitamin form
[4] = Blood level of 1α,25-(OH)2 D3 in vitamin D-deficient rats after oral dosing (Example 3); assay type: in vivo, rat; conditions: oral 0.25 μg/kg, 4 h
Description: Male weanling rats are fed a diet deficient in vitamin D and with normal calcium (0.47%). […] Four hours after administration, the rats are killed and their blood level of 1α,25-(OH)2 D3 is measured using a standard technique.

[5] = Comparison of oral bioavailability in rachitic rats (Example 5); assay type: in vivo, rat; conditions: oral, 12 h
Description: Three-week-old rats were maintained on a vitamin D-deficient diet containing normal levels of calcium and phosphorus for 3-6 weeks until marked hypocalcemia was observed. […] A control group received only the vehicle. For all treatment groups, blood was obtained at 12 hours postdosing, and analyzed for serum levels of the vitamin form.

1α,25-(OH)2 D3 serum levels [1]: increased 1α,25-(OH)2 D3 serum levels
half-life [2]: 17.7 h
degraded [3]: ~2%
blood level of 1α,25-(OH)2 D3 versus control [4]: significantly elevated
Structure (SMILES): CC1=C(/C=C\C2=CCC[C@]3(C)[C@@H]([C@H](C)CCCC(C)(C)O)CC[C@@H]23)C[C@@H](O)C[C@@H]1O [1α,25-(OH)2 preD3, 1α,25-dihydroxyprevitamin D3]
time profile of serum 1α,25-(OH)2 D3 increase versus dosing with 1α,25-(OH)2 D3 [1]: more gradual and sustained for a greater duration
oral bioavailability versus 1α,25-(OH)2 D3 [5]: greater bioavailability than the active form of the vitamin
